For one test, the target named is GSK3β (Homo sapiens, UniProt P49841). Description: GSK3β kinase assay (Caliper LabChip, fluoresceinated peptide substrate). In kind it is biochemical. The method, boiled down: (§1)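 Eleven-point compound titrations (10 mM DMSO stocks) incubated with kinase and fluorescent peptide for 20 h at room temperature before EDTA quench. Substrate-to-product conversion measured by microfluidic mobility shift; IC50 from non-linear fitting.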

For the next test, the target named is GSK3α (Homo sapiens, UniProt P49840). As to the kind of experiment: GSK3α kinase assay (Caliper LabChip, fluoresceinated peptide substrate). In kind it is biochemical. The method, boiled down:
as §1

The subject of another test is pTau. As to the kind of experiment: pTau assay (no method described). The class given is cell-based.
The mark [1] stands for this setting: first value of the cell, 250 pM enzyme, 20 uM ATP, 20 hours at room temperature, read-out: GSK3β/α (nM): GSK3β IC50.

Read-outs that look alike come from different tables or passages of the source.

GSK3β, sequence (P49841 whole entry, species assumed): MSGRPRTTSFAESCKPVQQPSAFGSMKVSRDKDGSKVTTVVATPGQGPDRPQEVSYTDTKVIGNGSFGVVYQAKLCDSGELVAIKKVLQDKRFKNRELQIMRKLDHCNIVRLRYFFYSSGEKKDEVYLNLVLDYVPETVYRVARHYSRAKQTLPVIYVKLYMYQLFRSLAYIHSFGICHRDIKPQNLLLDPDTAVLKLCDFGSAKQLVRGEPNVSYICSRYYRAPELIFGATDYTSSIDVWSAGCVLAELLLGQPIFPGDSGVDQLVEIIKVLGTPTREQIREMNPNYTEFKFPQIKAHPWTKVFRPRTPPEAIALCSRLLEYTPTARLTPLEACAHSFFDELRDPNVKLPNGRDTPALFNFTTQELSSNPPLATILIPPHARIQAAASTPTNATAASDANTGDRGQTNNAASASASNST
GSK3α, sequence (P49840 whole entry, species assumed): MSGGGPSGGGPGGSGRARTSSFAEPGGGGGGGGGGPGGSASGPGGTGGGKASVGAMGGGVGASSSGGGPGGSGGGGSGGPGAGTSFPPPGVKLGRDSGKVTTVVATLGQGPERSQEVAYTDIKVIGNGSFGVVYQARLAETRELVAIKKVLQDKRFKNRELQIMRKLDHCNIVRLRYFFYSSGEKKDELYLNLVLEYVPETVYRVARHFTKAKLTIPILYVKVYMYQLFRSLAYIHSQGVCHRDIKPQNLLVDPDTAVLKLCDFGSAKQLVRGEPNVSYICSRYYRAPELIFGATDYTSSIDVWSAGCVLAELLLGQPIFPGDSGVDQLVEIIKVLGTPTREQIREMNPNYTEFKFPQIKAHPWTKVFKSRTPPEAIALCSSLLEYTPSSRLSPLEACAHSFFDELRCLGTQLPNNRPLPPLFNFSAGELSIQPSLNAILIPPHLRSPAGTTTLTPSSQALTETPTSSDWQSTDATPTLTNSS

For `O=C(Nc1cncc(N2CCOCC2)c1)c1ccnc(Nc2ccc(C(F)(F)F)cn2)c1` [Example 121, N-(5-Morpholinopyridin-3-yl)-2-((5-(trifluoromethyl)pyridin-2-yl)amino)isonicotinamide], the IC50 on GSK3β (setting [1]) was found to be 25 nM; on GSK3α it was 12 nM; with pTau, 1500 nM.

`O=C(Nc1cncnc1OCC(F)(F)F)c1ccnc(Nc2ccc(C(F)(F)F)cn2)c1` [Example 194, N-(4-(2,2,2-Trifluoroethoxy)pyrimidin-5-yl)-2-((5-(trifluoromethyl)pyridin-2-yl)amino)isonicotinamide]: the IC50 on GSK3β (setting [1]) was 3.2 nM; at GSK3α, 1.6 nM; in the test on pTau it was 140 nM.

`O=C(Nc1cnc(Cl)cc1C1(O)CCOCC1)c1ccnc(Nc2ccc(C(F)(F)F)cn2)c1` [Example 74, N-(6-Chloro-4-(4-hydroxytetrahydro-2H-pyran-4-yl)pyridin-3-yl)-2-((5-(trifluoromethyl)pyridin-2-yl)amino)isonicotinamide]: the IC50 on GSK3β (setting [1]) came to 3.4 nM; against GSK3α it was 2.5 nM; with pTau it was 180 nM.

Consider `O=C(Nc1cnccc1[S+]([O-])c1ccccc1)c1ccnc(Nc2ccc(C(F)(F)F)cn2)c1` (stereo not drawn) [Example 177, N-(4-(Phenylsulfinyl)pyridin-3-yl)-2-((5-(trifluoromethyl)pyridin-2-yl)amino)isonicotinamide], for which the results for the IC50 at GSK3β (setting [1]), on GSK3α and with pTau were 3.9 nM, 1.1 nM and 760 nM, respectively.

`O=C(Nc1cncc(-c2ccccc2Cl)c1)c1ccnc(Nc2cccc(C(F)(F)F)n2)c1` [Example 145, N-(5-(2-Chlorophenyl)pyridin-3-yl)-2-((6-(trifluoromethyl)pyridin-2-yl)amino)isonicotinamide]: the IC50 on GSK3β (setting [1]) turned out to be 6.4 nM; on GSK3α it was 4.4 nM; in the test with pTau, 730 nM.

In the case of `CCC1(c2cc(Cl)ncc2NC(=O)c2ccnc(Nc3ccc(C(F)(F)F)cn3)c2)OC(C)C(C)O1` (stereo not drawn) [Example 81, N-(6-Chloro-4-(2-ethyl-4,5-dimethyl-1,3-dioxolan-2-yl)pyridin-3-yl)-2-((5-(trifluoromethyl)pyridin-2-yl)amino)isonicotinamide], the IC50 at GSK3β (setting [1]) is 6.7 nM; at GSK3α, 4 nM; in the test on pTau, 1900 nM.

On to `N#Cc1ccc(Nc2cc(C(=O)Nc3cnccc3N3CCCCC3)ccn2)nc1` [Example 27, 2-((5-Cyanopyridin-2-yl)amino)-N-(4-(piperidin-1-yl)pyridin-3-yl)isonicotinamide], for which the IC50 at GSK3β (setting [1]) was 0.42 nM; on GSK3α, 0.18 nM; in the test on pTau, 5.2 nM.

In the case of `O=C(Nc1cnccc1OCC(F)(F)F)c1ccnc(Nc2ccc(Cl)cn2)c1` [Example 31, 2-((5-Chloropyridin-2-yl)amino)-N-(4-(2,2,2-trifluoroethoxy)pyridin-3-yl)isonicotinamide], the IC50 on GSK3β (setting [1]) was 0.74 nM; against GSK3α, 0.3 nM; in the test on pTau, 22 nM.

For `Cc1ccc(Nc2cc(C(=O)Nc3cncc(-c4ccccc4F)c3)ccn2)nc1` [Example 133, N-(5-(2-Fluorophenyl)pyridin-3-yl)-2-((5-methylpyridin-2-yl)amino)isonicotinamide], the IC50 was 7.3 nM at GSK3β (setting [1]), 3.4 nM on GSK3α and 1400 nM in the test with pTau.

With `O=C(Nc1cncc(-c2ccccc2F)c1)c1ccnc(Nc2ccc(F)cn2)c1` [Example 131, N-(5-(2-Fluorophenyl)pyridin-3-yl)-2-((5-fluoropyridin-2-yl)amino)isonicotinamide], the IC50 against GSK3β is 6.1 nM; at GSK3α, 3 nM; with pTau it was 640 nM.

Regarding `O=C(Nc1cncc(-c2ccccc2F)c1)c1ccnc(Nc2ccc(S(=O)(=O)N3CCCCC3)cn2)c1` [Example 159, N-(5-(2-Fluorophenyl)pyridin-3-yl)-2-((5-(piperidin-1-ylsulfonyl)pyridin-2-yl)amino)isonicotinamide], the figures for the IC50 on GSK3β, on GSK3α and with pTau were 3.9 nM, 1.9 nM and 960 nM, respectively.

In the case of `CCOc1ccncc1NC(=O)c1ccnc(Nc2ccc(C)cn2)c1` [Example 14, N-(4-Ethoxypyridin-3-yl)-2-((5-methylpyridin-2-yl)amino)isonicotinamide], the IC50 on GSK3β (setting [1]) amounted to 0.47 nM; on GSK3α, 1.5 nM; in the test on pTau, 125 nM.

As to `Cc1ccnc(Nc2cc(C(=O)Nc3cncc(-c4ccccc4F)c3)ccn2)c1` [Example 132, N-(5-(2-Fluorophenyl)pyridin-3-yl)-2-((4-methylpyridin-2-yl)amino)isonicotinamide], the results for the IC50 at GSK3β, on GSK3α and in the test with pTau were 9 nM, 6.2 nM and 1900 nM, respectively.

For the compound `O=C(Nc1cncnc1Br)c1ccnc(Nc2ccc(C(F)(F)F)cn2)c1` [Example 192, N-(4-Bromopyrimidin-5-yl)-2-((5-(trifluoromethyl)pyridin-2-yl)amino)isonicotinamide], the IC50 came out at 23 nM on GSK3β (setting [1]), 9.3 nM on GSK3α and 520 nM in the test on pTau.

On to `O=C(Nc1cncc(-c2ccccc2F)c1)c1ccnc(Nc2cccc(F)n2)c1` [Example 136, N-(5-(2-Fluorophenyl)pyridin-3-yl)-2-((6-fluoropyridin-2-yl)amino)isonicotinamide], for which the IC50 on GSK3β (setting [1]) was 11 nM; at GSK3α, 2.7 nM; with pTau, 1100 nM.

`O=C(Nc1cnsc1-c1ccccc1)c1ccnc(Nc2ccc(C(F)(F)F)cn2)c1` [Example 204, N-(5-Phenylisothiazol-4-yl)-2-((5-(trifluoromethyl)pyridin-2-yl)amino)isonicotinamide]: the IC50 worked out at 3 nM on GSK3β (setting [1]), 1.7 nM on GSK3α and 300 nM in the test on pTau.

`O=C(Nc1cnc(F)cc1OCC(F)F)c1ccnc(Nc2ccc(C(F)(F)F)cn2)c1` [Example 80, N-(4-(2,2-Difluoroethoxy)-6-fluoropyridin-3-yl)-2-((5-(trifluoromethyl)pyridin-2-yl)amino)isonicotinamide]: the IC50 on GSK3β (setting [1]) turned out to be 6.2 nM; at GSK3α, 3.3 nM; with pTau, 86 nM.

`O=C(Nc1cnc(Cl)cc1-c1ccccc1)c1ccnc(Nc2ccc(C(F)(F)F)cn2)c1` [Example 66, N-(6-Chloro-4-phenylpyridin-3-yl)-2-((5-(trifluoromethyl)pyridin-2-yl)amino)isonicotinamide]: the IC50 on GSK3β (setting [1]) came to 61 nM; against GSK3α, 29 nM; with pTau, 5850 nM.

On to `CCC1(c2cc(Cl)ncc2NC(=O)c2ccnc(Nc3ccc(C)cn3)c2)OCCO1` [Example 109, N-(6-Chloro-4-(2-ethyl-1,3-dioxolan-2-yl)pyridin-3-yl)-2-((5-methylpyridin-2-yl)amino)isonicotinamide], for which the IC50 was found to be 1.8 nM against GSK3β; 1.2 nM on GSK3α (second value of the cell, 250 pM enzyme, 20 uM ATP, 20 hours at room temperature, read-out: GSK3β/α (nM): GSK3α IC50); 45 nM with pTau.

Take `O=C(Nc1cnncc1-c1ccccc1)c1ccnc(Nc2ccc(C(F)(F)F)cn2)c1` [Example 198, N-(5-Phenylpyridazin-4-yl)-2-((5-(trifluoromethyl)pyridin-2-yl)amino)isonicotinamide]: the values for the IC50 on GSK3β (setting [1]), against GSK3α and with pTau were 6.7 nM, 2.9 nM and 180 nM, respectively.

As to `O=C(Nc1cncnc1-c1ccccc1)c1ccnc(Nc2ccc(C(F)(F)F)cn2)c1` [Example 193, N-(4-Phenylpyrimidin-5-yl)-2-((5-(trifluoromethyl)pyridin-2-yl)amino)isonicotinamide], the IC50 at GSK3β (setting [1]) turned out to be 3.6 nM; against GSK3α, 1.9 nM; in the test with pTau it was 165 nM.

On to `O=C(Nc1cncc2ccccc12)c1ccnc(Nc2ccc(C(F)(F)F)cn2)c1` [Example 64, N-(Isoquinolin-4-yl)-2-((5-(trifluoromethyl)pyridin-2-yl)amino)isonicotinamide], for which the IC50 at GSK3β (setting [1]) was 10 nM; against GSK3α, 3.1 nM; with pTau, 610 nM.

Take `O=C(Nc1cnc(Cl)cc1[S+]([O-])C1CC1)c1ccnc(Nc2ccc(C(F)(F)F)cn2)c1` (stereo not drawn) [Example 180, N-(6-Chloro-4-(cyclopropylsulfinyl)pyridin-3-yl)-2-((5-(trifluoromethyl)pyridin-2-yl)amino)isonicotinamide]: the figures for the IC50 on GSK3β (setting [1]), against GSK3α and in the test with pTau were 15 nM, 7.6 nM and 790 nM, respectively.

For `CCCC(O)c1cc(Cl)ncc1NC(=O)c1ccnc(Nc2ccc(C(F)(F)F)cn2)c1` (stereo not drawn) [Example 100, N-(6-Chloro-4-(1-hydroxybutyl)pyridin-3-yl)-2-((5-(trifluoromethyl)pyridin-2-yl)amino)isonicotinamide], the IC50 on GSK3β (setting [1]) was 11 nM; at GSK3α it was 8.4 nM; with pTau, 500 nM.

For the compound `O=C(Nc1cnccc1Sc1ccccc1)c1ccnc(Nc2ccc(C(F)(F)F)cn2)c1` [Example 172, N-(4-(Phenylthio)pyridin-3-yl)-2-((5-(trifluoromethyl)pyridin-2-yl)amino)isonicotinamide], the IC50 at GSK3β (setting [1]) worked out at 5.6 nM; against GSK3α it was 1.1 nM; in the test with pTau, 240 nM.

Consider `N#Cc1ccc(Nc2cc(C(=O)Nc3cnccc3-c3ccccc3)ccn2)nc1` [Example 10, 2-((5-Cyanopyridin-2-yl)amino)-N-(4-phenylpyridin-3-yl)isonicotinamide], for which the figures for the IC50 at GSK3β (setting [1]), against GSK3α and in the test on pTau were 0.98 nM, 0.58 nM and 27 nM, respectively.

With `O=C(Nc1cnccc1OCCN1CCCC1)c1ccnc(Nc2ccc(C(F)(F)F)cn2)c1` [Example 46, N-(4-(2-(Pyrrolidin-1-yl)ethoxy)pyridin-3-yl)-2-((5-(trifluoromethyl)pyridin-2-yl)amino)isonicotinamide], the IC50 was 150 nM on GSK3β (setting [1]), 75 nM on GSK3α and 4300 nM with pTau.
